Assay results published in US8962843B2, “1,3,4-oxadiazole and 1,3,4-thiadiazole beta-lactamase inhibitors” (priority 2012, dated 2015).
Where a name gives a salt, the structure may show the parent alone.

System: bacterial strains that express the class D cephalosporinase OXA-15
Experiment: Standard BLI potentiation MIC / synergy MIC assays, strains expressing OXA-15
Assay type: cell-based, E. coli
Details: in combination with a β-lactam; comparator Avibactam (CCC)
Description: The experimental protocol was performed according to Clinical and Laboratory Standards Institute (CLSI) guidelines with modifications as described below (CLSI guidelines can be derived from the CLSI document M07-A9 published in January 2012: “Methods for Dilution Antimicrobial Susceptibility Tests for Bacteria That Grow Aerobically; Approved Standard-Ninth Edition”).
To prepare for MIC testing, frozen glycerol stocks of clinical isolates (Klebsiella pneumoniae, Eschericia coli, Enterobacter spp, Citrobacter spp, or Pseudomonas aeruginosa) were used to streak for isolated colonies on rich, non-selective, tryptic soy agar containing 5% sheep's blood (TSAB). Frozen glycerol stocks of laboratory engineered, isogenic E. coli strains, which contain cloned β-lactamase expressing plasmids were used to streak for isolated colonies on rich, selective LB agar supplemented with 25 μg/mL tetracycline to maintain the plasmid. All strains were incubated at 37° C. for 18-24 hrs.
On the day of testing, primary cultures were started by scraping off 5-10 colonies from the TSAB plates containing clinical strains or the tetracycline supplemented LB plates containing engineered strains. The clinical strain material was suspended in ˜5 mL of cation adjusted Mueller Hinton Broth (CAMHB) in 14 mL culture tubes. The engineered strain material was suspended in CAMHB (supplemented with 25 μg/mL tetracycline) in 14 mL culture tubes. All strains were incubated at 37° C. with aeration (200 rpm) for ˜2 hrs until the optical density at 600 nm (OD600) was >0.1.
The two compound components of the assay were each diluted in CAMHB and added to the 96-well broth microdilution assay plates. 50 μL of the β-lactam was added to each well of the assay plate in 2-fold dilutions with final concentrations ranging from 128 to 0.13 μg/mL. 25 μL of the BLI compound was added to all wells in the broth microdilution plates at a final concentration of 4 μg/mL. Inoculum cultures were prepared by standardizing the primary cultures to OD600=0.1 and then adding 20 μL of the adjusted primary culture per 1 mL CAMHB for clinical strains or CAMHB (supplemented with tetracycline at 100 μg/mL) for engineered strains, so that the final inoculum density was ˜10^5 colony forming units per milliliter. Diluted inoculum cultures were used to inoculate 25 μl, per well in 96-well broth microdilution assay plates. The final volume of each well was 100 μL and contained a β-lactam at different concentrations, a BLlcompound at 4 μg/mL concentration, the bacterial culture at an OD600 of approximately 0.001 and when necessary tetracycline at 25 μg/mL.
Plates were incubated for 18-20 hours at 37° C. with aeration (200 rpm). Following incubation, growth was confirmed visually placing plates over a viewing apparatus (stand with a mirror underneath) and then OD600 was measured using a SpectraMax 340PC384 plate reader (Molecular Devices, Sunnyvale, Calif.). Growth was defined as turbidity that could be detected with the naked eye or achieving minimum OD600 of 0.1. MIC values were defined as the lowest concentration producing no visible turbidity.
The synergy MIC (sMIC) assay determines the concentration of the BLI required to potentiate the activity of a fixed concentration of a β-lactam antibiotic against β-lactamase producing bacterial strains. The experimental protocol was performed according to Clinical and Laboratory Standards Institute (CLSI) guidelines with modifications as described below (CLSI guidelines can be derived from the CLSI document M07-A9 published in January 2012: “Methods for Dilution Antimicrobial Susceptibility Tests for Bacteria That Grow Aerobically; Approved Standard-Ninth Edition”). […]

N=C(N)NCc1nnc([C@@H]2CC[C@@H]3CN2C(=O)N3OS(=O)(=O)O)o1 [Compound 704, (2S,5R)-2-(5-(guanidinomethyl)-1,3,4-oxadiazol-2-yl)-7-oxo-1,6-diazabicyclo[3.2.1]octan-6-yl hydrogen sulfate]
activity against bacterial strains that express the class D cephalosporinase OXA-15, compared with Avibactam: more active than Avibactam

Nc1nnc([C@@H]2CC[C@@H]3CN2C(=O)N3OS(=O)(=O)O)o1 [Compound 707, (2S,5R)-2-(5-amino-1,3,4-oxadiazol-2-yl)-7-oxo-1,6-diazabicyclo[3.2.1]octan-6-yl hydrogen sulfate]
activity against bacterial strains that express the class D cephalosporinase OXA-15, compared with Avibactam: more active than Avibactam

N=C(N)N1CCC(c2nnc([C@@H]3CC[C@@H]4CN3C(=O)N4OS(=O)(=O)O)o2)CC1 [Compound 712, (2S,5R)-2-(5-(1-carbamimidoylpiperidin-4-yl)-1,3,4-oxadiazol-2-yl)-7-oxo-1,6-diazabicyclo[3.2.1]octan-6-yl hydrogen sulfate]
activity against bacterial strains that express the class D cephalosporinase OXA-15, compared with Avibactam: more active than Avibactam

O=C1N2C[C@@H](CC[C@H]2c2nnc(N3CCNCC3)o2)N1OS(=O)(=O)O [Compound 713, (2S,5R)-7-oxo-2-(5-(piperazin-1-yl)-1,3,4-oxadiazol-2-yl)-1,6-diazabicyclo[3.2.1]octan-6-yl hydrogen sulfate]
activity against bacterial strains that express the class D cephalosporinase OXA-15, compared with Avibactam: more active than Avibactam

N=C(N)NCCCc1nnc([C@@H]2CC[C@@H]3CN2C(=O)N3OS(=O)(=O)O)o1 [Compound 714, (2S,5R)-2-(5-(3-guanidinopropyl)-1,3,4-oxadiazol-2-yl)-7-oxo-1,6-diazabicyclo[3.2.1]octan-6-yl hydrogen sulfate]
activity against bacterial strains that express the class D cephalosporinase OXA-15, compared with Avibactam: more active than Avibactam

NCC(O)c1nnc([C@@H]2CC[C@@H]3CN2C(=O)N3OS(=O)(=O)O)o1 (stereo partly drawn) [Compound 715, (2S,5R)-2-(5-(2-amino-1-hydroxyethyl)-1,3,4-oxadiazol-2-yl)-7-oxo-1,6-diazabicyclo[3.2.1]octan-6-yl hydrogen sulfate]
activity against bacterial strains that express the class D cephalosporinase OXA-15, compared with Avibactam: more active than Avibactam

NCCNCCc1nnc([C@@H]2CC[C@@H]3CN2C(=O)N3OS(=O)(=O)O)o1 [Compound 716, (2S,5R)-2-(5-(2-((2-aminoethyl)amino)ethyl)-1,3,4-oxadiazol-2-yl)-7-oxo-1,6-diazabicyclo[3.2.1]octan-6-yl hydrogen sulfate]
activity against bacterial strains that express the class D cephalosporinase OXA-15, compared with Avibactam: more active than Avibactam

NCC(N)c1nnc([C@@H]2CC[C@@H]3CN2C(=O)N3OS(=O)(=O)O)o1 (stereo partly drawn) [Compound 717, (2S,5R)-2-(5-(1,2-diaminoethyl)-1,3,4-oxadiazol-2-yl)-7-oxo-1,6-diazabicyclo[3.2.1]octan-6-yl hydrogen sulfate]
activity against bacterial strains that express the class D cephalosporinase OXA-15, compared with Avibactam: more active than Avibactam

O=C1N2C[C@@H](CC[C@H]2c2nnc(C3CCNCC3)s2)N1OS(=O)(=O)O [Compound 719, (2S,5R)-7-oxo-2-(5-(piperidin-4-yl)-1,3,4-thiadiazol-2-yl)-1,6-diazabicyclo[3.2.1]octan-6-yl hydrogen sulfate]
activity against bacterial strains that express the class D cephalosporinase OXA-15, compared with Avibactam: more active than Avibactam

O=C1N2C[C@@H](CC[C@H]2c2nnc(CC3CNC3)o2)N1OS(=O)(=O)O [Compound 725, (2S,5R)-2-(5-(azetidin-3-ylmethyl)-1,3,4-oxadiazol-2-yl)-7-oxo-1,6-diazabicyclo[3.2.1]octan-6-yl hydrogen sulfate]
activity against bacterial strains that express the class D cephalosporinase OXA-15, compared with Avibactam: more active than Avibactam

NCC(O)Cc1nnc([C@@H]2CC[C@@H]3CN2C(=O)N3OS(=O)(=O)O)o1 (stereo partly drawn) [Compound 733, (2S,5R)-2-(5-(3-amino-2-hydroxypropyl)-1,3,4-oxadiazol-2-yl)-7-oxo-1,6-diazabicyclo[3.2.1]octan-6-yl hydrogen sulfate]
activity against bacterial strains that express the class D cephalosporinase OXA-15, compared with Avibactam: more active than Avibactam

N=C(N)N[C@H]1C[C@H](c2nnc([C@@H]3CC[C@@H]4CN3C(=O)N4OS(=O)(=O)O)o2)C1 [Compound 748, (2S,5R)-2-(5-((1r,3S)-3-guanidinocyclobutyl)-1,3,4-oxadiazol-2-yl)-7-oxo-1,6-diazabicyclo[3.2.1]octan-6-yl hydrogen sulfate]
activity against bacterial strains that express the class D cephalosporinase OXA-15, compared with Avibactam: more active than Avibactam

N[C@H]1C[C@H](NCc2nnc([C@@H]3CC[C@@H]4CN3C(=O)N4OS(=O)(=O)O)o2)C1 [Compound 757, (2S,5R)-2-(5-((((1r,3S)-3-aminocyclobutyl)amino)methyl)-1,3,4-oxadiazol-2-yl)-7-oxo-1,6-diazabicyclo[3.2.1]octan-6-yl hydrogen sulfate]
activity against bacterial strains that express the class D cephalosporinase OXA-15, compared with Avibactam: more active than Avibactam

O=C1N2C[C@@H](CC[C@H]2c2nnc(CNC3CCNCC3)o2)N1OS(=O)(=O)O [Compound 769, (2S,5R)-7-oxo-2-(5-((piperidin-4-ylamino)methyl)-1,3,4-oxadiazol-2-yl)-1,6-diazabicyclo[3.2.1]octan-6-yl hydrogen sulfate]
activity against bacterial strains that express the class D cephalosporinase OXA-15, compared with Avibactam: more active than Avibactam

NC1CCN(c2nnc([C@@H]3CC[C@@H]4CN3C(=O)N4OS(=O)(=O)O)o2)CC1 [Compound 773, (2S,5R)-2-(5-(4-aminopiperidin-1-yl)-1,3,4-oxadiazol-2-yl)-7-oxo-1,6-diazabicyclo[3.2.1]octan-6-yl hydrogen sulfate]
activity against bacterial strains that express the class D cephalosporinase OXA-15, compared with Avibactam: more active than Avibactam

O=C1N2C[C@@H](CC[C@H]2c2nnc([C@@H]3CNCCN3)o2)N1OS(=O)(=O)O [Compound 778, (2S,5R)-7-oxo-2-(5((S)-piperazin-2-yl)-1,3,4-oxadiazol-2-yl)-1,6-diazabicyclo[3.2.1]octan-6-yl hydrogen sulfate]
activity against bacterial strains that express the class D cephalosporinase OXA-15, compared with Avibactam: more active than Avibactam

N[C@H]1CC[C@@H](c2nnc([C@@H]3CC[C@@H]4CN3C(=O)N4OS(=O)(=O)O)o2)CC1 [Compound 780, (2S,5R)-2-(5-((1s,4R)-4-aminocyclohexyl)-1,3,4-oxadiazol-2-yl)-7-oxo-1,6-diazabicyclo[3.2.1]octan-6-yl hydrogen sulfate]
activity against bacterial strains that express the class D cephalosporinase OXA-15, compared with Avibactam: more active than Avibactam

N[C@H]1CC[C@H](c2nnc([C@@H]3CC[C@@H]4CN3C(=O)N4OS(=O)(=O)O)o2)CC1 [Compound 781, (2S,5R)-2-(5-((1r,4S)-4-aminocyclohexyl)-1,3,4-oxadiazol-2-yl)-7-oxo-1,6-diazabicyclo[3.2.1]octan-6-yl hydrogen sulfate]
activity against bacterial strains that express the class D cephalosporinase OXA-15, compared with Avibactam: more active than Avibactam

O=C1N2C[C@@H](CC[C@H]2c2nnc(CCCN3CCNCC3)o2)N1OS(=O)(=O)O [Compound 792, (2S,5R)-7-oxo-2-(5-(3-(piperazin-1-yl)propyl)-1,3,4-oxadiazol-2-yl)-1,6-diazabicyclo[3.2.1]octan-6-yl hydrogen sulfate]
activity against bacterial strains that express the class D cephalosporinase OXA-15, compared with Avibactam: more active than Avibactam

O=C1N2C[C@@H](CC[C@H]2c2nnc(N3CCNCC3)s2)N1OS(=O)(=O)O [Compound 797, (2S,5R)-7-oxo-2-(5-(piperazin-1-yl)-1,3,4-thiadiazol-2-yl)-1,6-diazabicyclo[3.2.1]octan-6-yl hydrogen sulfate]
activity against bacterial strains that express the class D cephalosporinase OXA-15, compared with Avibactam: more active than Avibactam
